Assay results: US11344620B2, “Combination therapies” (Novartis AG, priority 2014, dated 2022)

What was measured:
[1] = test system: EGFR mutant (L858R, ex19del and T790M) cancer models; conditions: in vitro and in vivo; cited from earlier work
WT EGFR = WT EGFR (Homo sapiens, UniProt P00533); conditions: at clinically relevant efficacious concentrations; cited from earlier work
[2] = test system: PD-L1 (CD274) on tumor cells; assay: Effects of targeted agents on PD-L1 modulation (real time PCR and flow cytometry), summary; assay type: cell-based, human
Excerpt: This example evaluates the effects of selected therapeutic agents (e.g., INC280, MEK162, LGX818 and LDK378) on PD-L1 (CD274) modulation. Selected therapeutic agents were examined by real time PCR and flow cytometry on PD-L1 levels.

[3] = test system: PD-L1 (CD274) mRNA in Hs.746.T tumor xenograft; assay: TaqMan RT PCR of PD-L1 mRNA in Hs.746.T tumor xenograft; assay type: in vivo, human; conditions: Hs.746.T tumor (gastric cancer, cMET amplification & mutation) xenograft, FIG. 2
Description: (§1) TaqMan RT PCR assays were developed to detect changes of expression levels of PD-L1 (CD274) in cell lines and xenograft tumors. mRNA was isolated from frozen cell pellets or tumor fragments using the Qiagen RNeasy Mini kit. Isolated RNA was frozen at −80° C. RNA quality was checked and RNA was quantified using a 2100 Agilent Bioanalyzer following the protocol for the Agilent RNA 6000 Nano Kit. cDNA was prepared using a High Capacity RNA- to cDNA Kit (Applied Biosystems). Real-time PCR reactions were carried out in 20 μl total volume, including 10 μl of Universal PCR master mix (Applied Biosystems), 1 μl of human PD-L1 (CD274) probe/primer set (Applied Biosystems), and 8 μl of cDNA. Each sample was run in triplicate. The amount of cDNA produced from 25-50 ng of RNA in the reverse transcription reaction was used in each PCR reaction. Due to difference in mRNA levels between PD-L1 and GAPDH, the two real-time PCR reactions were done in separate tubes using same amount of cDNA. The real-time PCR reaction was run on the C1000 Thermal Cycle (BioRad) with the cycle program as follows: a 10 minute incubation at 95° C. followed by 40 cycles of 95° C. for 15 seconds and 60° C. for 1 minute. After the reaction was complete, the PD-L1 average Ct was normalized relative to each Ct value from the GAPDH reference reaction. Each normalized logarithmic value was then converted into a linear value.

[4] = test system: PD-L1 (CD274) surface expression in EBC-1 cells; assay: Flow cytometry of PD-L1 surface expression in EBC-1 cells in vitro; assay type: cell-based, human; conditions: EBC-1 cells (NSCLC with cMET amplification), FIG. 1
Description: PD-L1 (CD274) expression was analyzed in cancer cell lines treated with INC280. Cells were obtained from ATCC and cultured in vitro following ATCC directions. The cell lines used were previously characterized by the Cancer Cell Line Encyclopedia Project (http://www.broadinstitute.org/ccle/home). Cells plated in six-well culture plates were treated with the INC280 at different concentrations (10 nM, 100 nM, and 1000 nM) for 24, 48 and 72 hours. Equal amount of vehicle (DMSO) was used as a control. Cells were washed with PBS and then harvested using a cell scraper. For each reaction, 0.5-1×10^6 cells were stained with 20 μL of anti-human monoclonal PD-L1-PE antibody, clone M1H1 (BD) for 30-60 minutes at 4° C. Cells were washed twice and data was acquired using a Canto II with FACSDiva software (BD Bioscience). Data analysis was performed using FlowJo software (Tree Star). Mean fluorescence intensity (MFI) was determined by gating on single cells. Unstained cells were used as a gating control.

[5] = test system: PD-L1 (CD274) mRNA in H3122 cells; assay: TaqMan RT PCR of PD-L1 mRNA in H3122 cells in vitro; assay type: cell-based, human; conditions: H3122 (NSCLC with ALK translocation) in vitro, FIG. 3
Description: (§2) TaqMan RT PCR assays were developed to detect changes of expression levels of PD-L1 (CD274) in cell lines and xenograft tumors. mRNA was isolated from frozen cell pellets or tumor fragments using the Qiagen RNeasy Mini kit. Isolated RNA was frozen at −80° C. RNA quality was checked and RNA was quantified using a 2100 Agilent Bioanalyzer following the protocol for the Agilent RNA 6000 Nano Kit. cDNA was prepared using a High Capacity RNA- to cDNA Kit (Applied Biosystems).
as §1, with “Real-time” for “TaqMan RT PCR assays were developed to detect changes of expression levels of PD-L1 (CD274) in cell lines and xenograft tumors. mRNA was isolated from frozen cell pellets or tumor fragments using the Qiagen RNeasy Mini kit. Isolated RNA was frozen at −80° C. RNA quality was checked and RNA was quantified using a 2100 Agilent Bioanalyzer following the protocol for the Agilent RNA 6000 Nano Kit. cDNA was prepared using a High Capacity RNA- to cDNA Kit (Applied Biosystems). Real-time”

[6] = test system: PD-L1 (CD274) mRNA in LOXIMV1 tumors; assay: TaqMan RT PCR of PD-L1 mRNA in LOXIMV1 tumor xenograft model; assay type: in vivo, human; conditions: tumor xenograft model bearing LOXIMV1 (BRAF mutant melanoma), FIG. 4
Description: as §2
as §1, with “Real-time” for “TaqMan RT PCR assays were developed to detect changes of expression levels of PD-L1 (CD274) in cell lines and xenograft tumors. mRNA was isolated from frozen cell pellets or tumor fragments using the Qiagen RNeasy Mini kit. Isolated RNA was frozen at −80° C. RNA quality was checked and RNA was quantified using a 2100 Agilent Bioanalyzer following the protocol for the Agilent RNA 6000 Nano Kit. cDNA was prepared using a High Capacity RNA- to cDNA Kit (Applied Biosystems). Real-time”

[7] = test system: PD-L1 (CD274) mRNA in HEYA8 tumors; assay: TaqMan RT PCR of PD-L1 mRNA in HEYA8 tumor xenograft model; assay type: in vivo, human; conditions: tumor xenograft model bearing HEYA8 (KRAS mutant ovarian cancer), FIG. 5
Description: as §2
as §1, with “Real-time” for “TaqMan RT PCR assays were developed to detect changes of expression levels of PD-L1 (CD274) in cell lines and xenograft tumors. mRNA was isolated from frozen cell pellets or tumor fragments using the Qiagen RNeasy Mini kit. Isolated RNA was frozen at −80° C. RNA quality was checked and RNA was quantified using a 2100 Agilent Bioanalyzer following the protocol for the Agilent RNA 6000 Nano Kit. cDNA was prepared using a High Capacity RNA- to cDNA Kit (Applied Biosystems). Real-time”

Sequence of WT EGFR (P00533 25-1210): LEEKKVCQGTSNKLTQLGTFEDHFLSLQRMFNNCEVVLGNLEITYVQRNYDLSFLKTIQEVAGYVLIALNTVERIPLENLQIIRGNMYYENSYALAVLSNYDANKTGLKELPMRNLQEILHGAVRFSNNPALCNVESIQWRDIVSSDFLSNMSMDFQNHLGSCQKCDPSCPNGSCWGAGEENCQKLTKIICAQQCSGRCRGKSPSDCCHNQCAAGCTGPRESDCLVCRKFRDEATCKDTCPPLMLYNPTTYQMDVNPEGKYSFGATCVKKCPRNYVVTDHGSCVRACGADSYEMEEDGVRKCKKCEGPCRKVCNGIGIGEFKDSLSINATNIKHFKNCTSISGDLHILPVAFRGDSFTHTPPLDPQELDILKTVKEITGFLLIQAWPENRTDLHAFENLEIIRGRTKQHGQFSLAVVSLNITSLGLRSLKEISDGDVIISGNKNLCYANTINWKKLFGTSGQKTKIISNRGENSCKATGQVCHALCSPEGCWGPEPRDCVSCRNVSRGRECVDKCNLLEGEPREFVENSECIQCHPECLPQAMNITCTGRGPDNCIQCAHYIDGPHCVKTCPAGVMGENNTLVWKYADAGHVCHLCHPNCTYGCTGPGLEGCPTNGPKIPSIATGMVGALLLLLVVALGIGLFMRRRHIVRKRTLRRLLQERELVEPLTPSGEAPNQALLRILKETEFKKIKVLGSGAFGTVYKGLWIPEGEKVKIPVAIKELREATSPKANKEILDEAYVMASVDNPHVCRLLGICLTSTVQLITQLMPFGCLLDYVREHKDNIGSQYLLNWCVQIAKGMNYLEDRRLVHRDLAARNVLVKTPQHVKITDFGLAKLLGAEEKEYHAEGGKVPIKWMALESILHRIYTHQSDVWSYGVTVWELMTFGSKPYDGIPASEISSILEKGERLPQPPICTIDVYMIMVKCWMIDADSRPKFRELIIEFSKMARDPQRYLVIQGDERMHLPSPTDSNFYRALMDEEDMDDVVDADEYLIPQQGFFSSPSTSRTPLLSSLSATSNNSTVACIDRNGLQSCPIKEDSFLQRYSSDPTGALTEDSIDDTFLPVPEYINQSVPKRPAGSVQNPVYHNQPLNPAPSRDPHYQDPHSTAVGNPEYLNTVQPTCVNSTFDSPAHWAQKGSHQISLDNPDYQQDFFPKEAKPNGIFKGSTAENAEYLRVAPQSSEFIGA

SMILES: Cc1cc(C(=O)Nc2nc3cccc(Cl)c3n2[C@@H]2CCCCN(C(=O)/C=C/CN(C)C)C2)ccn1 [EGF816, (R,E)-N-(7-chloro-1-(1-(4-(dimethylamino)but-2-enoyl)azepan-3-yl)-1H-benzo[d]imidazol-2-yl)-2-methylisonicotinamide]
- efficacy in EGFR mutant cancer models [1]: significant efficacy
- WT EGFR inhibition (WT EGFR): no indication of WT EGFR inhibition

SMILES: CNC(=O)c1ccc(-c2cnc3ncc(Cc4ccc5ncccc5c4)n3n2)cc1F [INC280, 2-fluoro-N-methyl-4-[7-(quinolin-6-ylmethyl)imidazo[1,2-b][1,2,4]triazin-2-yl]benzamide]
- inhibition of PD-L1 on tumor cells [2]: Significant inhibition
- PD-L1 expression (mRNA) [3]: Inhibition
- surface expression of PD-L1 [4]: significant downregulation

SMILES: Cc1cc(Nc2ncc(Cl)c(Nc3ccccc3S(=O)(=O)C(C)C)n2)c(OC(C)C)cc1C1CCNCC1 [LDK378, 5-chloro-N2-(2-isopropoxy-5-methyl-4-(piperidin-4-yl)-phenyl)-N4-[2-(propane-2-sulfonyl)-phenyl]-pyrimidine-2,4-diamine, reference compound]
- PD-L1 mRNA [5]: Inhibition
- inhibition of PD-L1 on tumor cells [2]: Significant inhibition

SMILES: COC(=O)N[C@@H](C)CNc1nccc(-c2cn(C(C)C)nc2-c2cc(Cl)cc(NS(C)(=O)=O)c2F)n1 [LGX818, methyl (S)-(1-((4-(3-(5-chloro-2-fluoro-3-(methylsulfonamido)phenyl)-1-isopropyl-1H-pyrazol-4-yl)pyrimidin-2-yl)amino)propan-2-yl)carbamate]
- PD-L1 mRNA [6]: Downregulation
- inhibition of PD-L1 on tumor cells [2]: Significant inhibition

SMILES: Cn1cnc2c(F)c(Nc3ccc(Br)cc3F)c(C(=O)NOCCO)cc21 [MEK162, 5-((4-bromo-2-fluorophenyl)amino)-4-fluoro-N-(2-hydroxyethoxy)-1-methyl-1H-benzo[d]imidazole-6-carboxamide]
- PD-L1 mRNA [7]: Downregulation
- inhibition of PD-L1 on tumor cells [2]: Significant inhibition
